# Results: US6559140B2 (Abbott Laboratories, priority 2000, dated 2003)
# Target: H3 receptor (Rattus norvegicus, UniProt Q9QYN8)
# Test: H3 receptor binding, (3H)-N-α-methylhistamine displacement in rat cortical membranes
# Details: male Sprague-Dawley rat brain cortical membranes, 30 minutes at 25° C., Cheng-Prusoff, geometric mean values of 2-10 separate experiments
# Experimental: Briefly, male Sprague-Dawley rat brain cortices were homogenized (1 g tissue/10 mL buffer) in 50 mM Tris-HCl/5 mM EDTA containing protease inhibitor cocktail (Calbiochem) using a polytron set at 20,500 rpm. Homogenates were centrifuged for 20 minutes at 40,000×g. The supernatant was decanted, and pellets were weighed. The pellet was resuspended by polytron homogenization in 40 mL 50 mM Tris-HCl/5 mM EDTA with protease inhibitors and centrifuged for 20 minutes at 40,000×g. […] Test compounds were added to the incubation mixtures prior to initiating the incubation assay by addition of the membranes. Thioperamide (3 μM) was used to determine nonspecific binding. Binding incubations were conducted for 30 minutes at 25° C. and terminated by addition of 2 mL of ice cold 50 mM Tris-HCl (H 7.7) and filtration through 0.3% polyethylenimine-soaked Unifilter plates (Packard). These filters were washed 4 additional times with 2 mL of ice-cold 50 mM Tris-HCl and dried for 1 hour. Radioactivity was determined using liquid scintillation counting techniques. Results were analyzed by Hill transformation and Ki values were determined using the Cheng-Prusoff equation.
# Sequence of H3 receptor (Q9QYN8 1-397 isoform Q9QYN8-3): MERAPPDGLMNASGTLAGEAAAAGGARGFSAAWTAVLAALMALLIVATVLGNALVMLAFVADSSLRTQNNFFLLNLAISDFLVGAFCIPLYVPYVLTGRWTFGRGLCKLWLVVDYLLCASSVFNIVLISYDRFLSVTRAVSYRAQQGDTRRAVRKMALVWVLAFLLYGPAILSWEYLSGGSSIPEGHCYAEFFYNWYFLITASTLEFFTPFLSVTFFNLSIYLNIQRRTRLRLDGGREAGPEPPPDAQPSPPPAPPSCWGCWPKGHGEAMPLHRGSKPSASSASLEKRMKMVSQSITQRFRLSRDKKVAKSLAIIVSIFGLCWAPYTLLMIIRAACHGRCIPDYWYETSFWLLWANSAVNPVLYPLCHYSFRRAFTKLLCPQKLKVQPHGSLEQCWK
row,SMILES,Ki
1,"C[C@@H](NC(=O)c1ccco1)C(=O)N1CCCN(CCCOc2ccc(-c3noc(-c4cccs4)n3)c(F)c2)CC1 [Example 148, N-{(1R)-2-[4-(3-{3-fluoro-4-[5-(2-thienyl)-1,2,4-oxadiazol-3-yl]phenoxy}propyl)-1,4-diazepan-1-yl]-1-methyl-2-oxoethyl}-2-furamide]",3.94 nM
2,"C[C@@H](NC(=O)c1ccco1)C(=O)N1CCCN(CCCOc2ccc(-c3noc(-c4nccs4)n3)c(F)c2)CC1 [Example 149, N-{(1R)-2-[4-(3-{3-fluoro-4-[5-(1,3-thiazol-2-yl)-1,2,4-oxadiazol-3-yl]phenoxy}propyl)-1,4-diazepan-1-yl]-1-methyl-2-oxoethyl}-2-furamide]",6.24 nM
3,"C[C@@H](NC(=O)c1ccco1)C(=O)N1CCCN(CCCOc2ccc(-c3noc(-c4ccncc4)n3)c(F)c2)CC1 [Example 150, N-{(1R)-2-[4-(3-{3-fluoro-4-[5-(4-pyridinyl)-1,2,4-oxadiazol-3-yl]phenoxy}propyl)-1,4-diazepan-1-yl]-1-methyl-2-oxoethyl}-2-furamide]",12.6 nM
4,"C[C@@H](NC(=O)c1ccco1)C(=O)N1CCCN(CCCOc2ccc(-c3noc(-c4ccccc4)n3)c(F)c2)CC1 [Example 151, N-[(1R)-2-(4-{3-[3-fluoro-4-(5-phenyl-1,2,4-oxadiazol-3-yl)phenoxy]propyl}-1,4-diazepan-1-yl)-1-methyl-2-oxoethyl]-2-furamide]",4.29 nM
5,"C[C@@H](NC(=O)c1ccco1)C(=O)N1CCCN(CCCOc2ccc(-c3noc(CCc4ccccc4)n3)c(F)c2)CC1 [Example 152, N-{(1R)-2-[4-(3-{3-fluoro-4-[5-(2-phenylethyl)-1,2,4-oxadiazol-3-yl]phenoxy}propyl)-1,4-diazepan-1-yl]-1-methyl-2-oxoethyl}-2-furamide]",1.01 nM
6,"N#Cc1ccc(C(=O)NCCC(=O)N2CCN(CCCOc3ccc(-c4noc(-c5ccccc5)n4)c(F)c3)CC2)cc1 [Example 153, 4′-cyano-N-[3-(4-{3-[3-fluoro-4-(5-phenyl-1,2,4-oxadiazol-3-yl)phenoxy]propyl}-1-piperazinyl)-3-oxopropyl]benzamide]",26.1 nM
7,"O=C(NCCC(=O)N1CCN(CCCOc2ccc(-c3noc(-c4ccccc4)n3)c(F)c2)CC1)c1ccsc1 [Example 154, N-[3-(4-{3-[3-fluoro-4-(5-phenyl-1,2,4-oxadiazol-3-yl)phenoxy]propyl}-1-piperazinyl)-3-oxopropyl]-3-thiophenecarboxamide]",25 nM
8,"O=C(NCCC(=O)N1CCN(CCCOc2ccc(-c3noc(-c4ccccc4)n3)c(F)c2)CC1)[C@H]1CCCO1 [Example 155, (2R)-N-[3-(4-{3-[3-fluoro-4-(5-phenyl-1,2,4-oxadiazol-3-yl)phenoxy]propyl}-1-piperazinyl)-3-oxopropyl]tetrahydro-2-furancarboxamide]",17.1 nM
9,"Cc1cc(C)c(C(=O)NCCC(=O)N2CCN(CCCOc3ccc(-c4noc(-c5ccccc5)n4)c(F)c3)CC2)s1 [Example 156, N-[3-(4-{3-[3-fluoro-4-(5-phenyl-1,2,4-oxadiazol-3-yl)phenoxy]propyl}-1-piperazinyl)-3-oxopropyl]-3,5-dimethyl-2-thiophenecarboxamide]",13.7 nM
10,"Cc1cc(C(=O)NCCC(=O)N2CCN(CCCOc3ccc(-c4noc(-c5ccccc5)n4)c(F)c3)CC2)c(C)o1 [Example 157, N-[3-(4-{3-[3-fluoro-4-(5-phenyl-1,2,4-oxadiazol-3-yl)phenoxy]propyl}-1-piperazinyl)-3-oxopropyl]-2,5-dimethyl-3-furamide]",46.1 nM
11,"O=C(NCCC(=O)N1CCN(CCCOc2ccc(-c3noc(-c4ccccc4)n3)c(F)c2)CC1)C1CCCC1 [Example 158, N-[3-(4-{3-[3-fluoro-4-(5-phenyl-1,2,4-oxadiazol-3-yl)phenoxy]propyl}-1-piperazinyl)-3-oxopropyl]cyclopentanecarboxamide]",11.7 nM
12,"C[C@@H](NC(=O)c1cccs1)C(=O)N1CCN(CCCOc2ccc(-c3noc(-c4ccccc4)n3)c(F)c2)CC1 [Example 159, N-[(1R)-2-(4-{3-[3-fluoro-4-(5-phenyl-1,2,4-oxadiazol-3-yl)phenoxy]propyl}-1-piperazinyl)-1-methyl-2-oxoethyl]-2-thiophenecarboxamide]",4.98 nM
13,"C[C@@H](NC(=O)c1cccnc1)C(=O)N1CCN(CCCOc2ccc(-c3noc(-c4ccccc4)n3)c(F)c2)CC1 [Example 160, N-[(1R)-2-(4-{3-[3-fluoro-4-(5-phenyl-1,2,4-oxadiazol-3-yl)phenoxy]propyl}-1-piperazinyl)-1-methyl-2-oxoethyl]nicotinamide]",2.29 nM
14,"C[C@@H](NC(=O)c1ccco1)C(=O)N1CCN(CCCOc2ccc(-c3noc(-c4ccccc4)n3)c(F)c2)CC1 [Example 161, N-[(1R)-2-(4-{3-[3-fluoro-4-(5-phenyl-1,2,4-oxadiazol-3-yl)phenoxy]propyl}-1-piperazinyl)-1-methyl-2-oxoethyl]-2-furamide]",2.41 nM
15,"C[C@@H](NC(=O)c1ccno1)C(=O)N1CCN(CCCOc2ccc(-c3noc(-c4ccccc4)n3)c(F)c2)CC1 [Example 162, N-[(1R)-2-(4-{3-[3-fluoro-4-(5-phenyl-1,2,4-oxadiazol-3-yl)phenoxy]propyl}-1-piperazinyl)-1-methyl-2-oxoethyl]-5-isoxazolecarboxamide]",13 nM
16,"C[C@@H](NC(=O)[C@@H]1CCCO1)C(=O)N1CCN(CCCOc2ccc(-c3noc(-c4ccccc4)n3)c(F)c2)CC1 [Example 163, (2S)-N-[(1R)-2-(4-{3-[3-fluoro-4-(5-phenyl-1,2,4-oxadiazol-3-yl)phenoxy]propyl}-1-piperazinyl)-1-methyl-2-oxoethyl]tetrahydro-2-furancarboxamide]",8.35 nM
17,"C[C@@H](NC(=O)CCN1CCOCC1)C(=O)N1CCN(CCCOc2ccc(-c3noc(-c4ccccc4)n3)c(F)c2)CC1 [Example 164, N-[(1R)-2-(4-{3-[3-fluoro-4-(5-phenyl-1,2,4-oxadiazol-3-yl)-phenoxy]propyl}-1-piperazinyl)-1-methyl-2-oxoethyl]-3-(4-morpholinyl)propanamide]",6.37 nM
18,"CC(C)CC(=O)N[C@H](C)C(=O)N1CCN(CCCOc2ccc(-c3noc(-c4ccccc4)n3)c(F)c2)CC1 [Example 165, N-[(1R)-2-(4-{3-[3-fluoro-4-(5-phenyl-1,2,4-oxadiazol-3-yl)phenoxy]propyl}-1-piperazinyl)-1-methyl-2-oxoethyl]-3-methylbutanamide]",11 nM
19,"C[C@@H](N)C(=O)N1CCN(CCCOc2ccc(-c3noc(CC4CCCC4)n3)c(F)c2)CC1 [Example 168, (2R)-1-[4-(3-{4-[5-(cyclopentylmethyl)-1,2,4-oxadiazol-3-yl]-3-fluorophenoxy}propyl)-1-piperazinyl]-1-oxo-2-propanamine]",6.79 nM
20,"C[C@@H](N)C(=O)N1CCCN(CCCOc2ccc(-c3noc(CC4CCCC4)n3)c(F)c2)CC1 [Example 169, (2R)-1-[4-(3-{4-[5-(cyclopentylmethyl)-1,2,4-oxadiazol-3-yl]-3-fluorophenoxy}propyl)-1,4-diazepan-1-yl]-1-oxo-2-propanamine]",5.63 nM
21,"CCC(=O)N[C@H](C)C(=O)N1CCN(CCCOc2ccc(-c3noc(CC4CCCC4)n3)c(F)c2)CC1 [Example 170, N-{(1R)-2-[4-(3-{4-[5-(cyclopentylmethyl)-1,2,4-oxadiazol-3-yl]-3-fluorophenoxy}propyl)-1-piperazinyl]-1-methyl-2-oxoethyl}propanamide]",8.74 nM
22,"C[C@@H](NC(=O)CC(C)(C)C)C(=O)N1CCN(CCCOc2ccc(-c3noc(CC4CCCC4)n3)c(F)c2)CC1 [Example 171, N-{(1R)-2-[4-(3-{4-[5-(cyclopentylmethyl)-1,2,4-oxadiazol-3-yl]-3-fluorophenoxy}propyl)-1-piperazinyl]-1-1-methyl-2-oxoethyl}-3,3-dimethylbutanamide]",5.42 nM
23,"C[C@@H](NC(=O)CCN1CCOCC1)C(=O)N1CCN(CCCOc2ccc(-c3noc(CC4CCCC4)n3)c(F)c2)CC1 [Example 172, N-{(1R)-2-[4-(3-{4-[5-(cyclopentylmethyl)-1,2,4-oxadiazol-3-yl]-3-fluorophenoxy}propyl)-1-piperazinyl]-1-methyl-2-oxoethyl}-3-(4-morpholinyl)propanamide]",1.22 nM
24,"Cc1ccc(C(=O)N[C@H](C)C(=O)N2CCN(CCCOc3ccc(-c4noc(CC5CCCC5)n4)c(F)c3)CC2)cc1 [Example 173, N-{(1R)-2-[4-(3-{4-[5-(cyclopentylmethyl)-1,2,4-oxadiazol-3-yl]-3-fluorophenoxy}propyl)-1-piperazinyl]-1-methyl-2-oxoethyl}-4-methylbenzamide]",1.56 nM
25,"C[C@@H](NC(=O)c1ccc(F)cc1)C(=O)N1CCN(CCCOc2ccc(-c3noc(CC4CCCC4)n3)c(F)c2)CC1 [Example 174, N-{(1R)-2-[4-(3-{4-[5-(cyclopentylmethyl)-1,2,4-oxadiazol-3-yl]-3-fluorophenoxy}propyl)-1-piperazinyl]-1-methyl-2-oxoethyl}-4-fluorobenzamide]",0.81 nM
26,"COc1ccc(C(=O)N[C@H](C)C(=O)N2CCN(CCCOc3ccc(-c4noc(CC5CCCC5)n4)c(F)c3)CC2)cc1 [Example 175, N-{(1R)-2-[4-(3-{4-[5-(cyclopentylmethyl)-1,2,4-oxadiazol-3-yl]-3-fluorophenoxy}propyl)-1-piperazinyl]-1-methyl-2-oxoethyl}-4-methoxybenzamide]",1.88 nM
